# Laboratory results reported in US7163689B2, “Intravenous valproate for acute treatment of migraine headache” (priority 1999, dated 2007).
# Several values for one entry are separate records, joined by “and”; a condition that tells them apart may be missing. Identical values can stand only once.
# Legend:
# [1] = test system: patients with moderate to severe migraine headaches of duration of 24 to 96 hrs; assay: Pilot study: IV valproate vs IM DHE with metoclopramide for abortive treatment of acute migraine headache (Example 1); assay type: in vivo, human; settings: for % Headache Relief: 5 patients per group; for Headache Severity / Nausea/vomiting / Phonophobia / Photophobia: individual patient; for Headache Severity: grade 0-3; for Nausea/vomiting / Phonophobia / Photophobia: presence
# Source text: This Example describes the results of a pilot study using intravenous valproate for abortive treatment of acute migraine headache. • Methods. Patients with established diagnosis of migraine with and without aura were considered for randomization to intravenous (“IV”) valproate (“VPA”) or intramuscular (“IM”) dihydroergotamine (“DHE”) with metoclopramide, also referred to herein as […]®, for patients with moderate to severe migraine headaches of duration of 24 to 96 hrs. Patients received intravenous infusion of 500 mgs of valproate over 30 mins or 1 mg DHE with 10 mgs metoclopramide IM. Headache severity, presence of nausea, phonophobia and photophobia were rated at baseline, 1 hr, 2 hrs, and 4 hrs. Table I and II. There were 5 patients in each group. • Results. Of the 5 patients receiving valproate, 4 of the 5 had response of their headaches from moderate or severe to none or mild at 1 hr, 2 hrs, and 4 hrs. Of the 5 patients receiving DHE, 3 of the 5 patients had headache response to moderate or severe to mild or none at 1 hr, 2 hrs, and 4 hrs. Table III. […] In the DHE group, 2 of 5 had nausea at baseline, and 1 had nausea at 1 hr, 2 hrs, and 4 hrs. Table IVa. […] In the DHE group, 3 of 5 had relief of photophobia at 1 hr, 4 of 5 had relief at 2 hrs and 4 hrs. […] In the DHE group, 2 of 5 had relief of phonophobia at 1 hr, and 3 of 5 had relief of phonophobia at 2 hrs and 4 hrs. Table IVb. • Conclusions. Intravenous valproate is an alternative therapy for abortive treatment of moderate to severe prolonged acute migraine headache. Anti-convulsant mechanisms may be relevant to treatment of headache symptomatology.
# [2] = test system: patients with moderate to severe headaches of 24–72 hours duration; assay: Expanded study: IV VPA vs DHE with metoclopramide IM, acute migraine headache (Example 2); assay type: in vivo, human; settings: for % Headache Relief: 10 patients per group; for Headache Severity / Nausea/vomiting / Phonophobia / Photophobia: individual patient; for Headache Severity: grade 0-3; for Nausea/vomiting / Phonophobia / Photophobia: presence
# Procedure: This Example describes an expanded study and analysis of the effectiveness of intravenous VPA for the treatment of acute migraine headache of significant duration. Patient data from the pilot study described in Example 1 has been incorporated and further analyzed in addition to new patient data. • Design. […] Patients alternately received intravenous VPA 500 mgs over 15–30 minutes, or dihydroergotamine (“DHE”) 1 mg with metoclopramide 10 mgs intramuscularly (“IM”). Age ranged from 22 to 73 years. Patients rated severity of headache, presence or absence of nausea, photophobia, and phonophobia at 1, 2 and 4 hrs. Table V and Table VI. • Results. In the 10 patients receiving DHE and metoclopramide, 40% had headache relief at 1 hour, 50% at 2 hours, 60% at 4 hours. The percent with nausea at 0, 1, 2, and 4 hours was 60%, 10%, 20%, 30% respectively, photophobia at 0, 1, 2, and 4 hours 100%, 50%, 50%, 40% respectively, phonophobia at 0, 1, 2, and 4 hours 80%, 30%, 50%, 40% respectively. In the 10 patients receiving i.v. VPA, 60% had headache relief at 1 hour, 70% at 2 hours, 70% at 4 hours, the percent with nausea at 0, 1, 2, and 4 hours was 70%, 30% 30%, 20% respectively, photophobia at 0, 1, 2, and 4 hours was 100%, 40%, 40%, 30% respectively, and phonophobia at 0, 1, 2, and 4 hours was 90%, 40%, 40%, 30% respectively. Table VII. • Conclusions. The results of the present study indicate that intravenous VPA is at least as efficacious as DHE for abortive treatment of acute migraine. Accordingly, intravenous VPA offers a treatment option for migraine headache patients who have recently used a triptan or DHE without the risk of drug-drug interaction or cardiovascular complications.
smiles,measurement,setting,value
"CCCC(CCC)C(=O)[O-].[Na+] [Depacon, valproate sodium]",% experiencing Nausea,[1]; 0-h (baseline),80%
same,% experiencing Photophobia,[1]; 0-h (baseline),100%
same,% experiencing phonphobia,[1]; 0-h (baseline),80%
same,% experiencing Nausea,[1]; 1-h,20%
same,% experiencing Photophobia,[1]; 1-h,20%
same,% experiencing phonphobia,[1]; 1-h,20%
same,% experiencing Nausea,[1]; 2-h,20%
same,% experiencing Photophobia,[1]; 2-h,20%
same,% experiencing phonphobia,[1]; 2-h,20%
same,% experiencing Nausea,[1]; 4-h,0%
same,% experiencing Photophobia,[1]; 4-h,0%
same,% experiencing phonphobia,[1]; 4-h,0%
same,% Headache Relief,[1]; 1-h,60%
same,% Headache Relief,[1]; 2-h,100%
same,% Headache Relief,[1]; 4-h,80%
same,% Headache Relief,[1]; 24-h,40%
same,% experiencing Nausea,[1]; 24-h,40%
same,% experiencing Photophobia,[1]; 24-h,40%
same,% experiencing phonphobia,[1]; 24-h,40%
same,Headache Severity,"[1]; 0-h (baseline), Depacon IV 500 mg or DHE 1 mg + Reglan 10 mg, sodium",3 (3×) and 2 (2×)
same,Headache Severity,"[1]; 1-h, sodium",1 (2×) and 0 (2×) and 2
same,Headache Severity,"[1]; 2-h, sodium",1 (4×) and 0
same,Headache Severity,"[1]; 4-h, sodium",0 (3×) and 1 and 2
same,Nausea/vomiting,"[1]; 0-h (baseline), sodium",0
same,Phonophobia,"[1]; 0-h (baseline), sodium",0
same,Nausea/vomiting,"[1]; 1-h, sodium",0
same,Phonophobia,"[1]; 1-h, sodium",0
same,Photophobia,"[1]; 1-h, sodium",0
same,Nausea/vomiting,"[1]; 2-h, sodium",0
same,Phonophobia,"[1]; 2-h, sodium",0
same,Photophobia,"[1]; 2-h, sodium",0
same,Nausea/vomiting,[1]; 4-h,0
same,Phonophobia,[1]; 4-h,0
same,Photophobia,[1]; 4-h,0
same,Nausea/vomiting,"[1]; 24-h, sodium",0
same,Phonophobia,"[1]; 24-h, sodium",0
same,Photophobia,"[1]; 24-h, sodium",0
same,patients who had nausea,"[1]; of 5 patients, 1 hr",1
same,patients who had relief of phonophobia,"[1]; of 5 patients, 1 hr",4 of 5
same,patients who had relief of photophobia,"[1]; of 5 patients, 1 hr",4 of 5
same,patients with response of headache from moderate or severe to none or mild,"[1]; of 5 patients, 1 hr",4 of the 5
same,patients who had nausea,"[1]; of 5 patients, 2 hrs",1
same,patients who had relief of phonophobia,"[1]; of 5 patients, 2 hrs",4 of 5
same,patients who had relief of photophobia,"[1]; of 5 patients, 2 hrs",4 of 5
same,patients with response of headache from moderate or severe to none or mild,"[1]; of 5 patients, 2 hrs",4 of the 5
same,patients who had nausea,"[1]; of 5 patients, 4 hrs",all had relief of nausea
same,patients who had relief of phonophobia,"[1]; of 5 patients, 4 hrs",all had relief
same,patients who had relief of photophobia,"[1]; of 5 patients, 4 hrs",all had relief
same,patients with response of headache from moderate or severe to none or mild,"[1]; of 5 patients, 4 hrs",4 of the 5
same,patients who had nausea,"[1]; of 5 patients, baseline",4 of 5
same,patients who had photophobia,"[1]; of 5 patients, baseline",all had photophobia
same,% experiencing Nausea,[2]; 0-h (baseline),70%
same,% experiencing Phonophobia,[2]; 0-h (baseline),90%
same,% experiencing Photophobia,[2]; 0-h (baseline),100%
same,% experiencing Nausea,[2]; 1-h,30%
same,% experiencing Phonophobia,[2]; 1-h,40%
same,% experiencing Photophobia,[2]; 1-h,40%
same,% experiencing Nausea,[2]; 2-h,30%
same,% experiencing Phonophobia,[2]; 2-h,40%
same,% experiencing Photophobia,[2]; 2-h,40%
same,% experiencing Nausea,[2]; 4-h,20%
same,% experiencing Phonophobia,[2]; 4-h,30%
same,% experiencing Photophobia,[2]; 4-h,30%
same,% Headache Relief,[2]; 1-h,60%
same,% Headache Relief,[2]; 2-h,70%
same,% Headache Relief,[2]; 4-h,70%
same,% Headache Relief,[2]; 24-h,50%
same,% experiencing Nausea,[2]; 24-h,40%
same,% experiencing Phonophobia,[2]; 24-h,60%
same,Headache Severity,"[2]; 0-h (baseline), Depacon IV 500 mg or DHE 1 mg IM + Reglan 10 mg IM, sodium",3 (5×) and 2 (5×)
same,Headache Severity,"[2]; 1-h, sodium",1 (4×) and 0 (2×) and 2 (2×) and 3 (2×)
same,Headache Severity,"[2]; 2-h, sodium",1 (6×) and 2 (3×) and 0
same,Headache Severity,"[2]; 4-h, sodium",0 (3×) and 1 (4×) and 2 (2×) and 3
same,Headache Severity,"[2]; 24-h, sodium",1 (3×) and 2 (4×) and 3 and 0 (2×)
same,Nausea/vomiting,"[2]; 0-h (baseline), sodium",0
same,Phonophobia,"[2]; 0-h (baseline), sodium",0
same,Nausea/vomiting,"[2]; 1-h, sodium",0
same,Phonophobia,"[2]; 1-h, sodium",0
same,Photophobia,"[2]; 1-h, sodium",0
same,Nausea/vomiting,"[2]; 2-h, sodium",0
same,Phonophobia,"[2]; 2-h, sodium",0
same,Photophobia,"[2]; 2-h, sodium",0
same,Nausea/vomiting,"[2]; 4-h, sodium",0
same,Phonophobia,"[2]; 4-h, sodium",0
same,Photophobia,"[2]; 4-h, sodium",0
same,Nausea/vomiting,"[2]; 24-h, sodium",0
same,Phonophobia,"[2]; 24-h, sodium",0
same,Photophobia,"[2]; 24-h, sodium",0
"CN1C[C@H](C(=O)N[C@]2(C)O[C@@]3(O)[C@@H]4CCCN4C(=O)[C@H](Cc4ccccc4)N3C2=O)C[C@@H]2c3cccc4[nH]cc(c34)C[C@H]21 [DHE, dihydroergotamine]",% experiencing Nausea,[1]; 0-h (baseline),40%
same,% experiencing Photophobia,[1]; 0-h (baseline),100%
same,% experiencing phonphobia,[1]; 0-h (baseline),80%
same,% experiencing Nausea,[1]; 1-h,20%
same,% experiencing Photophobia,[1]; 1-h,60%
same,% experiencing phonphobia,[1]; 1-h,40%
same,% experiencing Nausea,[1]; 2-h,50%
same,% experiencing Photophobia,[1]; 2-h,50%
same,% experiencing phonphobia,[1]; 2-h,50%
same,% experiencing Nausea,[1]; 4-h,40%
same,% experiencing Photophobia,[1]; 4-h,40%
same,% experiencing phonphobia,[1]; 4-h,40%
same,% Headache Relief,[1]; 1-h,60%
same,% Headache Relief,[1]; 2-h,50%
same,% Headache Relief,[1]; 4-h,60%
same,Headache Severity,"[1]; 0-h (baseline), Depacon IV 500 mg or DHE 1 mg + Reglan 10 mg",2 and 3 (4×)
same,Headache Severity,[1]; 1-h,3 and 0 (2×) and 1 and 2
same,Headache Severity,[1]; 2-h,3 and 0 (2×) and 2
same,Headache Severity,[1]; 4-h,3 and 1 and 0 (2×) and 2
same,Nausea/vomiting,[1]; 0-h (baseline),0
same,Phonophobia,[1]; 0-h (baseline),0
same,Nausea/vomiting,[1]; 1-h,0
same,Phonophobia,[1]; 1-h,0
same,Photophobia,[1]; 1-h,0
same,Nausea/vomiting,[1]; 2-h,0
same,Phonophobia,[1]; 2-h,0
same,Photophobia,[1]; 2-h,0
same,Nausea/vomiting,[1]; 4-h,0
same,Phonophobia,[1]; 4-h,0
same,Photophobia,[1]; 4-h,0
same,Nausea/vomiting,[1]; 24-h,0
same,Phonophobia,[1]; 24-h,0
same,Photophobia,[1]; 24-h,0
same,patients who had nausea,"[1]; of 5 patients, 1 hr",1
same,patients who had relief of phonophobia,"[1]; of 5 patients, 1 hr",2 of 5
same,patients who had relief of photophobia,"[1]; of 5 patients, 1 hr",3 of 5
same,patients with response of headache from moderate or severe to none or mild,"[1]; of 5 patients, 1 hr",3 of the 5
same,patients who had nausea,"[1]; of 5 patients, 2 hrs",1
same,patients who had relief of phonophobia,"[1]; of 5 patients, 2 hrs",3 of 5
same,patients who had relief of photophobia,"[1]; of 5 patients, 2 hrs",4 of 5
same,patients with response of headache from moderate or severe to none or mild,"[1]; of 5 patients, 2 hrs",3 of the 5
same,patients who had nausea,"[1]; of 5 patients, 4 hrs",1
same,patients who had relief of phonophobia,"[1]; of 5 patients, 4 hrs",3 of 5
same,patients who had relief of photophobia,"[1]; of 5 patients, 4 hrs",4 of 5
same,patients with response of headache from moderate or severe to none or mild,"[1]; of 5 patients, 4 hrs",3 of the 5
same,patients who had nausea,"[1]; of 5 patients, baseline",2 of 5
same,% experiencing Nausea,[2]; 0-h (baseline),60%
same,% experiencing Phonophobia,[2]; 0-h (baseline),80%
same,% experiencing Photophobia,[2]; 0-h (baseline),100%
same,% experiencing Nausea,[2]; 1-h,10%
same,% experiencing Phonophobia,[2]; 1-h,30%
same,% experiencing Photophobia,[2]; 1-h,50%
same,% experiencing Nausea,[2]; 2-h,20%
same,% experiencing Phonophobia,[2]; 2-h,50%
same,% experiencing Photophobia,[2]; 2-h,50%
same,% experiencing Nausea,[2]; 4-h,30%
same,% experiencing Phonophobia,[2]; 4-h,40%
same,% experiencing Photophobia,[2]; 4-h,40%
same,% Headache Relief,[2]; 1-h,40%
same,% Headache Relief,[2]; 2-h,50%
same,% Headache Relief,[2]; 4-h,60%
same,% Headache Relief,[2]; 24-h,90%
same,% experiencing Nausea,[2]; 24-h,10%
same,% experiencing Phonophobia,[2]; 24-h,10%
same,Headache Severity,"[2]; 0-h (baseline), Depacon IV 500 mg or DHE 1 mg IM + Reglan 10 mg IM",2 (4×) and 3 (6×)
same,Headache Severity,[2]; 1-h,3 (2×) and 0 (4×) and 2 (4×)
same,Headache Severity,[2]; 2-h,3 (2×) and 0 (4×) and 2 (3×) and 1
same,Headache Severity,[2]; 4-h,3 (2×) and 1 (2×) and 0 (4×) and 2 (2×)
same,Headache Severity,[2]; 24-h,1 (6×) and 2 and 0 (3×)
same,Nausea/vomiting,[2]; 0-h (baseline),0
same,Phonophobia,[2]; 0-h (baseline),0
same,Nausea/vomiting,[2]; 1-h,0
same,Phonophobia,[2]; 1-h,0
same,Photophobia,[2]; 1-h,0
same,Nausea/vomiting,[2]; 2-h,0
same,Phonophobia,[2]; 2-h,0
same,Photophobia,[2]; 2-h,0
same,Nausea/vomiting,[2]; 4-h,0
same,Phonophobia,[2]; 4-h,0
same,Photophobia,[2]; 4-h,0
same,Nausea/vomiting,[2]; 24-h,0
same,Phonophobia,[2]; 24-h,0
